Measurements taken from EPA's ToxValDB 9.5 (doi:10.2903/j.efsa.2010.1719).
In brackets after ≈: the same amount, converted by molar mass. Several values for one entry are separate records, joined by “and”; a condition that tells them apart may be missing. Identical values can stand only once.

Legend:
Mus musculus = conditions: acute; oral; M; mortality
Danio rerio = conditions: mortality
Daphnia magna = conditions: chronic/long-term; duration: 21 days; reproduction
Canidae = conditions: chronic; duration: 1 years; oral; Dog Other; histopathology: nonneoplastic
Apis mellifera = conditions: acute; duration: 48 hours; dermal; mortality
Colinus virginianus = conditions: for LD50: acute, oral, mortality
Bibionidae = conditions: chronic/long-term; duration: 28 days
Folsomia candida = conditions: chronic/long-term; duration: 28 days

In the case of `CCCN(CC)CC1COC2(CCC(C(C)(C)C)CC2)O1` (stereo not drawn) [Spiroxamine], the LD50 (Mus musculus) is reported as 460 mg/kg-day, the LC50 (Danio rerio; acute, duration: 96 hours) is reported as 2.41 µg/mL (≈ 8.1 µM) and the NOEC (Danio rerio; chronic, duration: 230 days) is reported as 0.002 mg/L. For the same compound, the LC50 (Tagia sp.; acute, duration: 14 days, mortality) was > 1000 mg/kg, the NOEC (Tagia sp.; chronic/long-term, duration: 56 days) was > 3750 mg/kg and the NOEC (Daphnia magna) was 0.034 mg/L. For the same compound, the NOAEL (Canidae) was 2.5 mg/kg-day, the LD50 (Apis mellifera) was > 4.2 µg/piece and the LD50 (Colinus virginianus; diet) was > 358 mg/kg-day. It also gave an LD50 (Colinus virginianus) of 565 mg/kg-day, an NOEL (Colinus virginianus; reproduction developmental) of 2.02 mg/kg-day and an NOAEL (Rattus norvegicus; acute, neurology) of 10 mg/kg-day. The LD50 (Rattus norvegicus; acute, oral, F, mortality) was < 560 mg/kg-day, the NOEL (Rattus norvegicus; chronic) was 9.19 mg/kg-day and 22.2 mg/kg-day and the NOEC (Bibionidae) was 5.6 mg/L. For the same compound, the NOEC (Folsomia candida) was 32 mg/kg, the NOEL (Anas platyrhynchos; reproductive) was 10.6 mg/kg-day and the LD50 (Anas platyrhynchos; short-term, oral, feed, mortality) was 874 mg/kg-day.
